Experimental data taken from PMC9963887, “Towards Radiolabeled EGFR-Specific Peptides: Alternatives to GE11” (Pharmaceuticals, 2023).
Where two headings read alike, the source gives them in different places. Where a SMILES comes first, the peptide text is derived from it. Bridges are numbered along the chain shown (N, C = ends). [ ]: non-standard residue; d: D form. The star is where a group is joined. X1 = O=C(O)CN1CCN(CC(=O)O)CCN([C@H](CCC(=O)*)C(=O)O)CC1; PEG6 = NCCOCCOCCOCCOCCOCCOCCC(=O)O

Experiments:
[1] = logD(7.4) determination by partition between 1-octanol and phosphate buffer pH 7.4; assay type: physicochemical
From the text: For peptidic radiotracers, hydrophilicity is an important parameter as it can enable the initial assessment of the route by which the radioligand is metabolized and excreted. The commonly determined measure for the hydrophilicity/lipophilicity profile of a radiotracer is the determination of its logD(7.4) value and is investigated by partition experiments between an aqueous phosphate buffer phase at pH 7.4 and 1-octanol. For [^68Ga]Ga-1–[^68Ga]Ga-11, logD(7.4) values of −3.44 ± 0.08 ([^68Ga]Ga-1), −3.51 ± 0.22 ([^68Ga]Ga-2), −3.92 ± 0.09 ([^68Ga]Ga-3), −4.01 ± 0.13 ([^68Ga]Ga-4), −3.91 ± 0.06 ([^68Ga]Ga-5), −3.86 ± 0.11 ([^68Ga]Ga-6), −3.03 ± 0.20 ([^68Ga]Ga-7), −3.16 ± 0.11 ([^68Ga]Ga-8), −2.93 ± 0.08 ([^68Ga]Ga-9), −3.92 ± 0.09 ([^68Ga]Ga-10) and −3.98 ± 0.06 ([^68Ga]Ga-11) were obtained in these partition experiments. This high hydrophilicity of the tracers can be considered beneficial, as it should result in low, non-specific liver accumulation of the agents. This is advantageous with regard to the visualization of malignant liver lesions (especially hepatocellular carcinomas (HCCs) and liver metastases of colon carcinoma), which mostly overexpress the EGFR [46, 47] and, thus, represent an important area of application of an EGFR-specific peptidic radiotracer.
Determination of the logD(7.4) values of [^68Ga]Ga-1–[^68Ga]Ga-11. The aqueous phasepH7.4/1-octanol partition coefficient (logD(7.4)) of the developed radiotracers was determined by addition of a solution of the respective radiolabeled peptide (5 µL, 0.5–2 MBq) to a mixture of 1-octanol (800 µL) and phosphate buffer (0.05 M, pH 7.4, 795 µL). The mixtures were vigorously shaken for 5 min on a mechanical shaker and subsequently centrifuged at 13,000 rpm (12,100× g) for 2 min to achieve complete phase separation. 125 µL of each phase were taken and the amount of radioactivity in each phase was determined by γ-counting. Experiments were performed thrice, each in triplicate.

[2] = stability towards degradation by human serum peptidases; assay type: in vitro ADME; conditions: pooled human serum, 37 °C, incubation up to 90 min, intact tracer by radio-HPLC; read-out: Calculated Half-Life in Human Serum
Procedure: For the applicability of radiopeptides, their stability towards degradation by human serum peptidases is of importance as a low stability towards metabolization interferes with successful target visualization. Thus, the stability of the radiopeptides [^68Ga]Ga-1–[^68Ga]Ga-11 against degradation was determined by incubation with commercially available pooled human serum of healthy donors at 37 °C for 0, 15, 30, 45, 60, 75 and 90 min. At these time points, the fraction of the intact radiopeptides was again determined by analytical radio-HPLC, and the serum half-life of each radioligand was calculated.
Determination of the stability of [^68Ga]Ga-1–[^68Ga]Ga-11 towards degradation by human serum peptidases. A sample of the respective radiolabeled peptide (125 µL, 10–30 MBq, pH 7.4) was added to commercially available pooled human serum (500 µL) and warmed to 37 °C. At defined time-points (t = 0, […]), 75 µL of the mixture were added to 75 µL ice-cold ethanol, further cooled on ice for 5 min, and centrifuged at 13,000 rpm (12,100× g) for 90 s. The supernatant was collected, the activity of the supernatant and the precipitate measured, where after the supernatant was analyzed by analytical radio-HPLC and the amount of intact tracer was quantified. Experiments were performed thrice for each radioligand.

[3] = 1-octanol / phosphate buffer 0.05 M, read-out: logD(7.4)

SMILES	logD [1, 3]	half-life [2]	logD [1]
CC[C@H](C)[C@H](NC(=O)[C@@H](NC(=O)[C@H](CC(N)=O)NC(=O)[C@H](CCC(N)=O)NC(=O)[C@@H]1CCCN1C(=O)[C@@H](NC(=O)[C@H](Cc1ccc(O)cc1)NC(=O)CNC(=O)[C@H](Cc1ccc(O)cc1)NC(=O)[C@H](Cc1c[nH]c2ccccc12)NC(=O)[C@H](Cc1c[nH]cn1)NC(=O)[C@H](Cc1ccc(O)cc1)NC(=O)CCOCCOCCOCCOCCOCCOCCNC(=O)CC[C@H](C(=O)O)N1CCN(CC(=O)O)CCN(CC(=O)O)CC1)[C@@H](C)O)C(C)C)C(=O)O [[^68Ga]Ga-1, metal not drawn]	-3.44 ± 0.08	4.928 ± 0.045 h	
CC(C)C[C@H](NC(=O)CCOCCOCCOCCOCCOCCOCCNC(=O)CC[C@H](C(=O)O)N1CCN(CC(=O)O)CCN(CC(=O)O)CC1)C(=O)N[C@@H](C)C(=O)N[C@@H](CCCNC(=N)N)C(=O)N[C@@H](CC(C)C)C(=O)N[C@@H](CC(C)C)C(=O)N[C@H](C(=O)O)[C@@H](C)O [[^68Ga]Ga-2, metal not drawn]			-3.51 ± 0.22
CC[C@H](C)[C@H](NC(=O)[C@@H]1CCCN1C(=O)[C@H](Cc1ccc(O)cc1)NC(=O)[C@H](CO)NC(=O)CCOCCOCCOCCOCCOCCOCCNC(=O)CC[C@H](C(=O)O)N1CCN(CC(=O)O)CCN(CC(=O)O)CC1)C(=O)N1CCC[C@H]1C(=O)N[C@@H](CC(=O)O)C(=O)N[C@H](C(=O)O)[C@@H](C)O [[^68Ga]Ga-3, metal not drawn] ({X1-PEG6}-SYPIPDT-OH; C-terminus assumed)	-3.92 ± 0.09	135 ± 5.12 h	
C[C@@H](O)[C@H](NC(=O)[C@H](CCC(N)=O)NC(=O)[C@H](CC(=O)O)NC(=O)[C@H](CO)NC(=O)[C@@H](NC(=O)[C@H](Cc1c[nH]cn1)NC(=O)CCOCCOCCOCCOCCOCCOCCNC(=O)CC[C@H](C(=O)O)N1CCN(CC(=O)O)CCN(CC(=O)O)CC1)[C@@H](C)O)C(=O)N[C@@H](CC(N)=O)C(=O)O [[^68Ga]Ga-4, metal not drawn] ({X1-PEG6}-HTSDQTN-OH)	-4.01 ± 0.13	40.5 ± 0.645 h	
N=C(N)NCCC[C@H](NC(=O)[C@@H](N)CCC(N)=O)C(=O)N[C@@H](Cc1c[nH]cn1)C(=O)N[C@@H](CCCCN)C(=O)N1CCC[C@H]1C(=O)N[C@@H](CCCNC(=N)N)C(=O)N[C@@H](CCC(=O)O)C(=O)NCCOCCOCCOCCOCCOCCOCCC(=O)N[C@@H](CCCCNC(=O)CC[C@H](C(=O)O)N1CCN(CC(=O)O)CCN(CC(=O)O)CC1)C(N)=O [[^68Ga]Ga-5, metal not drawn] (H-QRHKPRE[PEG6]K(X1)-NH2)	-3.91 ± 0.06		
CC(C)C[C@H](NC(=O)[C@H](Cc1c[nH]c2ccccc12)NC(=O)[C@H](Cc1ccccc1)NC(=O)[C@H](CCC(N)=O)NC(=O)[C@H](C)NC(=O)[C@H](CO)NC(=O)[C@H](CC(=O)O)NC(=O)[C@@H]1CCCN1C(=O)[C@H](CCCNC(=N)N)NC(=O)[C@@H](N)CC(N)=O)C(=O)N[C@@H](Cc1c[nH]cn1)C(=O)N[C@@H](Cc1c[nH]cn1)C(=O)NCCOCCOCCOCCOCCOCCOCCC(=O)N[C@@H](CCCCNC(=O)CC[C@H](C(=O)O)N1CCN(CC(=O)O)CCN(CC(=O)O)CC1)C(N)=O [[^68Ga]Ga-6, metal not drawn] (H-NRPDSAQFWLHH[PEG6]K(X1)-NH2)	-3.86 ± 0.11	17.7 ± 0.717 h	
CSCC[C@H](NC(=O)[C@@H]1CCCN1C(=O)[C@@H](N)Cc1ccccc1)C(=O)N[C@@H](Cc1ccccc1)C(=O)N[C@@H](CC(N)=O)C(=O)N[C@@H](Cc1c[nH]cn1)C(=O)N[C@@H](Cc1c[nH]c2ccccc12)C(=O)N[C@@H](CCC(=O)O)C(=O)N[C@@H](CCC(N)=O)C(=O)N[C@@H](Cc1c[nH]c2ccccc12)C(=O)N1CCC[C@H]1C(=O)N1CCC[C@H]1C(=O)NCCOCCOCCOCCOCCOCCOCCC(=O)N[C@@H](CCCCNC(=O)CC[C@H](C(=O)O)N1CCN(CC(=O)O)CCN(CC(=O)O)CC1)C(N)=O [[^68Ga]Ga-7, metal not drawn] (H-FPMFNHWEQWPP[PEG6]K(X1)-NH2)	-3.03 ± 0.2	1.11 ± 0.05 h	
CSCC[C@H](NC(=O)[C@@H]1CSSC[C@H](NC(=O)[C@@H](N)CCC(=O)O)C(=O)N2CCC[C@H]2C(=O)N[C@@H](CC(C)C)C(=O)N[C@@H](CO)C(=O)N[C@@H](Cc2c[nH]cn2)C(=O)N[C@@H](CC(=O)O)C(=O)NCC(=O)N[C@@H](Cc2ccc(O)cc2)C(=O)N[C@@H](CS)C(=O)N[C@@H](CC(C)C)C(=O)N[C@@H](Cc2c[nH]cn2)C(=O)N[C@@H](CC(=O)O)C(=O)NCC(=O)N[C@@H](C(C)C)C(=O)N1)C(=O)NCCOCCOCCOCCOCCOCCOCCC(=O)N[C@@H](CCCCNC(=O)CC[C@H](C(=O)O)N1CCN(CC(=O)O)CCN(CC(=O)O)CC1)C(N)=O [[^68Ga]Ga-8, metal not drawn] (H-ECPLSHDGYCLHDGVCM[PEG6]K(X1)-NH2; disulfide 2-16)			-3.16 ± 0.11
CC[C@H](C)[C@@H]1NC(=O)[C@H](Cc2ccc(O)cc2)NC(=O)[C@H](CCSC)NC(=O)[C@H](CS)NC(=O)[C@H](C(C)C)NC(=O)CNC(=O)[C@H](CC(=O)O)NC(=O)[C@H](Cc2c[nH]cn2)NC(=O)[C@H](CC(C)C)NC(=O)[C@@H](NC(=O)[C@@H](N)Cc2ccc(O)cc2)CSSC[C@@H](C(=O)N[C@@H](CC(N)=O)C(=O)NCCOCCOCCOCCOCCOCCOCCC(=O)N[C@@H](CCCCNC(=O)CC[C@H](C(=O)O)N2CCN(CC(=O)O)CCN(CC(=O)O)CC2)C(N)=O)NC(=O)[C@H](C)NC(=O)[C@H](Cc2ccc(O)cc2)NC(=O)[C@H](CCCCN)NC(=O)[C@H](CC(=O)O)NC(=O)[C@H](CC(C)C)NC(=O)[C@H](C)NC(=O)[C@H](CCC(=O)O)NC1=O [[^68Ga]Ga-9, metal not drawn] (H-YCLHDGVCMYIEALDKYACN[PEG6]K(X1)-NH2; disulfide 2-19; N-terminus assumed)			-2.93 ± 0.08
CC[C@H](C)[C@@H]1NC(=O)[C@H](Cc2ccc(O)cc2)NC(=O)CNC(=O)[C@H](C(C)C)NC(=O)[C@H](C(C)C)NC(=O)[C@@H](NC(=O)[C@@H](N)CC(N)=O)CSSC[C@@H](C(=O)N[C@@H](CCC(N)=O)C(=O)NCCOCCOCCOCCOCCOCCOCCC(=O)N[C@@H](CCCCNC(=O)CC[C@H](C(=O)O)N2CCN(CC(=O)O)CCN(CC(=O)O)CC2)C(N)=O)NC(=O)[C@H](CCCNC(=N)N)NC(=O)[C@H](CCC(=O)O)NC(=O)CNC1=O [[^68Ga]Ga-10, metal not drawn] (H-NCVVGYIGERCQ[PEG6]K(X1)-NH2; disulfide 2-11)	-3.92 ± 0.09	11.7 ± 0.703 h	
C[C@H](NC(=O)[C@H](CCC(=O)O)NC(=O)[C@H](Cc1ccc(O)cc1)NC(=O)[C@H](CC(=O)O)NC(=O)[C@H](Cc1ccc(O)cc1)NC(=O)[C@H](Cc1ccccc1)NC(=O)CNC(=O)[C@@H]1CCCN1C(=O)CNC(=O)[C@H](CC(N)=O)NC(=O)[C@H](CCC(=O)O)NC(=O)CNC(=O)[C@H](CO)NC(=O)[C@@H](N)Cc1c[nH]c2ccccc12)C(=O)NCCOCCOCCOCCOCCOCCOCCC(=O)N[C@@H](CCCCNC(=O)CC[C@H](C(=O)O)N1CCN(CC(=O)O)CCN(CC(=O)O)CC1)C(N)=O [[^68Ga]Ga-11, metal not drawn] (H-WSGENGPGFYDYEA[PEG6]K(X1)-NH2)	-3.98 ± 0.06	9.37 ± 0.115 h	
